Experimental data: patent publication US6683184B2, “Piperazine derivatives and process for the preparation thereof” (Samjin Pharmaceutical Co., Ltd., priority 1999, dated 2004)
Converted amounts (≈) assume the structure as drawn.

Tests used:
Type in all cases: cell-based
[1] = test system: A549 (human non-small lung cell); test: In vitro antitumor effect against human tumor cell lines, SRB assay, A549; conditions: A549 cells, 48 hours
Description: (§1) In vitro antitumor effect against human tumor cell lines.
(§2) a. Human solid tumor cell lines, A549(non-small lung cell), SKMEL-2(melanoma), HCT-15(colon), SKOV-3(ovarian), XF-498(CNS) were cultured at 37° C. in 5% CO2 incubators using RPMI 1640 media containing 10% FBS, while they were transfer-cultured successively once or twice per week. Cell cultures were dissolved in a solution of 0.25% trypsin and 3 mM CDTA PBS(−) and then cells were separated from media which the cells were sticked on.
(§3) b. 5×10^3˜2×10^4 cells were added into each well of 96-well plate and cultured in 5% CO2 incubator, at 37° C., for 24 hours.
(§4) c. Each sample drug was dissolved in a little DMSO and diluted with the used medium to a prescribed concentration for experiments, wherein the final concentration of DMSO was controlled below 0.5%.
(§5) d. Medium of each well cultured for 24 hours as above b. was removed by aspiration. Each 200 μl of drug samples prepared in c. was added into each well and the wells were cultured for 48 hours. Tz(time zero) plates were collected at the point of time drugs were added.
(§6) e. According to the SRB assay method, cell fixing with TCA, staining with 0.4% SRB solution, washing with 1% acetic acid and elution of dye with 10 mM Tris solution were carried out on Tz plates and culture-ended plates, whereby OD values were measured at 520 nm.
(§7) a. Time zero(Tz) value was determined with measuring the SRB protein amounts of the Tz plates collected at the point of time drugs were added.
(§8) b. Control value(C) was determined with the OD values of wells untreated with a drug.
(§9) c. Drug-treated test value(T) was determined with the OD values of drug-treated wells.
(§10) d. Effects of drugs were estimated with growth stimulation, net growth inhibition, net killing etc., being calculated from Tz, C and T.
(§11) e. If T≧Tz, cellular response function was calculated by 100×(T−Tz)/(C−Tz), and if T<Tz, by 100×(T−Tz)/Tz.

SKMEL-2 (human melanoma) = test: In vitro antitumor effect against human tumor cell lines, SRB assay, SKMEL-2; conditions: SK-MEL-2 cells, 48 hours
Description: as §1, §2, §3, §4, §5, §6, §7, §8, §9, §10, §11

XF 498 (human CNS) = test: In vitro antitumor effect against human tumor cell lines, SRB assay, XF 498; conditions: 48 hours; for ED50 XF-498: XF-498 cells
Description: as §1, §2, §3, §4, §5, §6, §7, §8, §9, §10, §11

SKOV-3 (human ovarian) = test: In vitro antitumor effect against human tumor cell lines, SRB assay, SKOV-3; conditions: SK-OV-3 cells, 48 hours
Description: as §1, §2, §3, §4, §5, §6, §7, §8, §9, §10, §11

HCT-15 (human colon) = test: In vitro antitumor effect against human tumor cell lines, SRB assay, HCT-15; conditions: HCT 15 cells, 48 hours
Description: as §1, §2, §3, §4, §5, §6, §7, §8, §9, §10, §11

| Compound | ED50 A 549 [1] [ng/mL] | ED50 SK-MEL-2 (SKMEL-2 (human melanoma)) [ng/mL] | ED50 XF-498 (XF 498 (human CNS)) [ng/mL] | ED50 SK-OV-3 (SKOV-3 (human ovarian)) [ng/mL] | ED50 HCT 15 (HCT-15 (human colon)) [ng/mL] | IC50 ([1]; Homo sapiens, read-out: ED50 A 549) [ng/mL] | IC50 (SKMEL-2 (human melanoma); Homo sapiens, read-out: ED50 SK-MEL-2) [ng/mL] | IC50 (XF 498 (human CNS); Homo sapiens, XF498, XF-498 cells, read-out: ED50 XF-498) [ng/mL] | IC50 (SKOV-3 (human ovarian); Homo sapiens, read-out: ED50 SK-OV-3) [ng/mL] | IC50 (HCT-15 (human colon); Homo sapiens, read-out: ED50 HCT 15) [ng/mL] |
| --- | --- | --- | --- | --- | --- | --- | --- | --- | --- | --- |
| COc1nc(C)c(C(C)=O)cc1N=C(NO)N1CCN(c2cc(C)cc(C)c2)CC1 [Example 132, N-Hydroxy-N′-(5-acetyl-2-methoxy-6-methylpyridin-3-yl)-[4-(3,5-dimethylphenyl)piperazin-1-yl]carboxyimidamide] | 11 (≈ 0.0267 µM) | 1 (≈ 0.00243 µM) | 2 (≈ 0.00486 µM) | 7 (≈ 0.017 µM) | 1 (≈ 0.00243 µM) | – | – | – | – | – |
| COC(=O)c1cc(N=C(NO)N2CCN(c3cc(F)cc(F)c3)CC2)c(OC)nc1C [Example 120, N-Hydroxy-N′-(5-methoxycarbonyl-2-methoxy-6-methylpyridin-3-yl)-[4-(3,5-difluorophenyl)piperazin-1-yl]carboxyimidamide] | 640 (≈ 1.47 µM) | 280 (≈ 0.643 µM) | 820 (≈ 1.88 µM) | 730 (≈ 1.68 µM) | 300 (≈ 0.689 µM) | – | – | – | – | – |
| COc1cc(OC)cc(N2CCN(C(=O)Nc3cc4ccccc4cc3OC)CC2)c1 [Example 87, 1-[(2-Methoxynaphth-3-yl)aminocarbonyl]-4-(3,5-dimethoxyphenyl)piperazine] | – | – | – | – | – | 10 (≈ 0.0237 µM) | 660 (≈ 1.57 µM) | 80 (≈ 0.19 µM) | 30 (≈ 0.0712 µM) | 8 (≈ 0.019 µM) |
| COc1nc(C)c(C(C)O)cc1N=C(NO)N1CCN(c2cc(C)cc(C)c2)CC1 (stereo not shown) [Example 138, N-Hydroxy-N′-[5-(1-hydroxyethyl)-2-methoxy-6-methylpyridin-3-yl]-[4-(3,5-dimethylphenyl)piperazin-1-yl]carboxyimidamide] | 74 (≈ 0.179 µM) | 16 (≈ 0.0387 µM) | 18 (≈ 0.0435 µM) | 30 (≈ 0.0725 µM) | 6 (≈ 0.0145 µM) | – | – | – | – | – |
| COC(=O)c1cc(N=C(NO)N2CCN(c3cc(OC)cc(OC)c3)CC2)c(OC)nc1C [Example 118, N-Hydroxy-N′-(5-methoxycarbonyl-2-methoxy-6-methylpyridin-3-yl)-[4-(3,5-dimethoxyphenyl)piperazin-1-yl]carboxyimidamide] | 57 (≈ 0.124 µM) | 19 (≈ 0.0413 µM) | 17 (≈ 0.037 µM) | 32 (≈ 0.0696 µM) | 0.2 (≈ 0.000435 µM) | – | – | – | – | – |
| 1-[(5,6-Dichloroethyl-2-methoxypyrazin-3-yl)aminocarbonyl]-4-(3,5-dimethoxyphenyl)piperazine [Example 35] | 0.1 | <0.1 | 0.1 | 0.7 | 0.1 | – | – | – | – | – |
| COc1nc2ccccc2cc1N=C(NO)N1CCN(c2cccc(Cl)c2)CC1 [Example 176, N-Hydroxy-N′-(2-methoxyquinolin-3-yl)-[4-(3-chlorophenyl)-piperazin-1-yl]carboxyimidamide] | 1.2 (≈ 0.00291 µM) | 0.3 (≈ 0.000728 µM) | 0.1 (≈ 0.000243 µM) | 0.9 (≈ 0.00219 µM) | 0.1 (≈ 0.000243 µM) | – | – | – | – | – |
| COc1cc(C)c(C)cc1N=C(NO)N1CCN(c2ccccc2)CC1 [Example 177, N-Hydroxy-N′-(4,5-dimethyl-2-methoxyphenyl-1-yl)-(4-phenylpiperazin-1-yl)carboxyimidamide] | 0.6 (≈ 0.00169 µM) | 0.3 (≈ 0.000846 µM) | 0.4 (≈ 0.00113 µM) | 0.8 (≈ 0.00226 µM) | 0.1 (≈ 0.000282 µM) | – | – | – | – | – |
